Like-named read-outs stand apart in the source and are kept apart here.
How the values were obtained:
[1] = test system: Diplodia maydis (DMA; isolate Warren-IN-96); format: cell-based
[2] = test system: Colletotrichum graminicola (CGR; isolate Carroll-IA-99); format: cell-based

Substance: LB-9827-3B-21E10: LBNL variant generated through gene shuffling of the LB-9827-1 mature peptide coding sequence (LSKYGGECSRAHNTCTYRKGGKNQVVNCPSAANKKCKSDRHHCEYDEYHKRVDCQTPV; Synthetic peptide LB-9827-3B-21E10)
- In vitro antifungal activity (IC50) against D. maydis (DMA) ([1]; high salt conditions): 30 ppm
- In vitro antifungal activity (IC50) against C. graminicola (CGR) ([2]; high salt conditions): 1.25 ppm

Substance: LB-9827-3A-11E4: LBNL variant generated through gene shuffling of the LB-9827-1 mature peptide coding sequence (LSKYGGECSRKHNTCTYKKGGKNQIVNCPTAANKRCKTDRHHCEYDEYHRRVDCQTPV; LB-9827-3A-11E4)
- In vitro antifungal activity (IC50) against D. maydis (DMA) ([1]; high salt conditions): 0.94 ppm
- In vitro antifungal activity (IC50) against C. graminicola (CGR) ([2]; high salt conditions): 1.25 ppm

Substance: LB-9827-3B-25F2: LBNL variant generated through gene shuffling of the LB-9827-1 mature peptide coding sequence (LSKYGGECSREHNTCTYLKGGKNQVVACGSAANKKCKRDRHHCEYDDYHKTVDCQTPV; Synthetic peptide LB-9827-3B-25F2)
- In vitro antifungal activity (IC50) against D. maydis (DMA) ([1]; high salt conditions): 7.5 ppm
- In vitro antifungal activity (IC50) against C. graminicola (CGR) ([2]; high salt conditions): 1.25 ppm

Substance: LB-5220 (r2 5G7): LBNL variant generated through gene shuffling of the LB-5220 mature peptide coding sequence (LKYTGTCRRANNQCKYKGQNNRDTFVKCPTFANKKCTRDGAKCSFDSYSRAVTCD; Synthetic peptide LB-5220 (r2-5G7))
- In vitro antifungal activity (IC50) against D. maydis (DMA) ([1]; high salt conditions): 12 ppm
- In vitro antifungal activity (IC50) against D. maydis (DMA) ([1]; low salt conditions): 0.1 ppm
- In vitro antifungal activity (IC50) against C. graminicola (CGR) ([2]; high salt conditions): 6 ppm

Substance: LB-5220 (ps 1B4): LBNL variant generated through gene shuffling of the LB-5220 mature peptide coding sequence (LKYTGTCTRKNNQCKYRGQNNRDTFVKCPTFANKRCTRDGAPCSFDSYSRAVTCD; Synthetic peptide LB-5220 (ps-1B4))
- In vitro antifungal activity (IC50) against D. maydis (DMA) ([1]; high salt conditions): 12 ppm
- In vitro antifungal activity (IC50) against D. maydis (DMA) ([1]; low salt conditions): 0.1 ppm

Substance: LB-9827-3B-26G11: LBNL variant generated through gene shuffling of the LB-9827-1 mature peptide coding sequence (LSKYGGECSKEHNTCKYLKGGKNQVVACPKAANKKCKTDRHHCEYDEYHKTVDCQTPV; Synthetic peptide LB-9827-3B-26G11)
- In vitro antifungal activity (IC50) against C. graminicola (CGR) ([2]; high salt conditions): 0.63 ppm

Substance: LB-5220 (r2 6F2): LBNL variant generated through gene shuffling of the LB-5220 mature peptide coding sequence (LKYTGTCRRANNQCKYKGQNNRDTFVKCPTFANKKCTRDGEKCSFDSYSRAVTCD; LB-5220 (r2-6F2))
- In vitro antifungal activity (IC50) against D. maydis (DMA) ([1]; high salt conditions): 6 ppm
- In vitro antifungal activity (IC50) against D. maydis (DMA) ([1]; low salt conditions): 0.1 ppm
- In vitro antifungal activity (IC50) against C. graminicola (CGR) ([2]; high salt conditions): 12 ppm
- In vitro antifungal activity (IC50) against C. graminicola (CGR) ([2]; low salt conditions): 0.4 ppm

Substance: LB-9827-3B-25G5: LBNL variant generated through gene shuffling of the LB-9827-1 mature peptide coding sequence (LSKYGGECSRAHNTCTYRKGGKNQVVKCGTAANKKCKSDRHHCEYDDYHKRVDCQTPV; Synthetic peptide LB-9827-3B-25G5)
- In vitro antifungal activity (IC50) against D. maydis (DMA) ([1]; high salt conditions): 0.47 ppm
- In vitro antifungal activity (IC50) against C. graminicola (CGR) ([2]; high salt conditions): 1.25 ppm
